Measured values published in the supplement of paper PMC10307832.

Assays:
Assay in all cases: relative viability (nuclei count vs DMSO), 5 days (fraction); higher = more cells survive
Erlotinib + Lapatinib = compound: C#Cc1cccc(Nc2ncnc3cc(OCCOC)c(OCCOC)cc23)c1 [Erlotinib] + CS(=O)(=O)CCNCc1ccc(-c2ccc3ncnc(Nc4ccc(OCc5cccc(F)c5)c(Cl)c4)c3c2)o1 [Lapatinib] (partner 2 µM)
Procedure, shortened: (§1)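 Medians of duplicate plates are given as relative viability. That measure is the nuclei count in treated wells divided by the count in vehicle wells. Counts were taken on 4× images of lung cancer cell lines in 1536-well plates, 5 days after pin-tool dosing the day after seeding with one drug alone or a fixed anchor-drug dose plus five library-drug doses (not always all listed) in √10 steps.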

Erlotinib + Crizotinib = compound: C#Cc1cccc(Nc2ncnc3cc(OCCOC)c(OCCOC)cc23)c1 [Erlotinib] + C[C@@H](Oc1cc(-c2cnn(C3CCNCC3)c2)cnc1N)c1c(Cl)ccc(F)c1Cl [Crizotinib] (partner 1 µM)
Procedure, shortened: as §1

AT9283 + Pictilisib = compound: O=C(Nc1c[nH]nc1-c1nc2ccc(CN3CCOCC3)cc2[nH]1)NC1CC1 [AT9283] + CS(=O)(=O)N1CCN(Cc2cc3nc(-c4cccc5[nH]ncc45)nc(N4CCOCC4)c3s2)CC1 [Pictilisib] (partner 1 µM)
Procedure, shortened: as §1

Erlotinib + Phenformin = compound: C#Cc1cccc(Nc2ncnc3cc(OCCOC)c(OCCOC)cc23)c1 [Erlotinib] + N=C(N)NC(=N)NCCc1ccccc1 [Phenformin] (partner 250 µM)
Procedure, shortened: as §1

AT9283 + Trametinib = compound: O=C(Nc1c[nH]nc1-c1nc2ccc(CN3CCOCC3)cc2[nH]1)NC1CC1 [AT9283] + CC(=O)Nc1cccc(-n2c(=O)n(C3CC3)c(=O)c3c(Nc4ccc(I)cc4F)n(C)c(=O)c(C)c32)c1 [Trametinib] (partner 0.02 µM)
Procedure, shortened: as §1

Cell Line | relative viability (Erlotinib + Lapatinib; first compound 0.02 µM) | relative viability (Erlotinib + Lapatinib; first compound 0.6325 µM) | relative viability (Erlotinib + Lapatinib; first compound 2 µM) | relative viability (Erlotinib + Crizotinib; first compound 0.02 µM) | relative viability (Erlotinib + Crizotinib; first compound 0.2 µM) | relative viability (Erlotinib + Crizotinib; first compound 0.6325 µM) | relative viability (Erlotinib + Crizotinib; first compound 2 µM) | relative viability (AT9283 + Pictilisib; first compound 0.003 µM) | relative viability (AT9283 + Pictilisib; first compound 0.03 µM) | relative viability (AT9283 + Pictilisib; first compound 0.09487 µM) | relative viability (AT9283 + Pictilisib; first compound 0.3 µM) | relative viability (Erlotinib + Phenformin; first compound 0.02 µM) | relative viability (Erlotinib + Phenformin; first compound 0.2 µM) | relative viability (Erlotinib + Phenformin; first compound 0.6325 µM) | relative viability (Erlotinib + Phenformin; first compound 2 µM) | relative viability (AT9283 + Trametinib; first compound 0.003 µM) | relative viability (AT9283 + Trametinib; first compound 0.03 µM) | relative viability (AT9283 + Trametinib; first compound 0.09487 µM) | relative viability (AT9283 + Trametinib; first compound 0.3 µM) | relative viability (Erlotinib + Lapatinib; first compound 0.2 µM)
Calu-6 | 1.12 | 1.1 | 0.979 | 0.931 | 0.719 | 0.853 | 0.714 | 0.932 | 0.242 | 0.227 | 0.194 | – | – | – | – | – | – | – | – | –
ChaGo-K-1 | – | – | – | 1.24 | 1.16 | 1.2 | 1.1 | 0.357 | 0.511 | 0.179 | 0.233 | 0.507 | 0.445 | 0.482 | 0.437 | 0.78 | 0.844 | 0.494 | 0.205 | –
EBC-1 | 0.23 | 0.221 | 0.22 | 0.206 | 0.189 | 0.169 | 0.164 | 0.368 | 0.158 | 0.149 | 0.124 | – | – | – | – | – | – | – | – | 0.19
EKVX | 0.206 | 0.192 | 0.186 | 1.04 | 0.457 | 0.287 | 0.147 | 0.419 | 0.411 | 0.199 | 0.142 | 0.245 | 0.205 | 0.127 | 0.137 | 0.361 | 0.345 | 0.32 | 0.191 | 0.178
EMC-BAC-2 | 0.934 | – | 0.822 | 0.806 | 0.68 | 0.83 | 0.63 | 0.537 | 0.375 | 0.228 | 0.235 | 0.578 | 0.571 | 0.559 | 0.502 | 0.923 | 0.58 | 0.362 | 0.336 | 0.828
EPLC-272H | 0.923 | 1.24 | 0.763 | 0.911 | 0.957 | 0.884 | 0.596 | 0.318 | 0.26 | 0.199 | 0.165 | 0.353 | 0.254 | 0.321 | 0.212 | 0.285 | 0.287 | 0.161 | 0.152 | 1.1
H3255 | 0.323 | 0.253 | – | 0.999 | 0.509 | 0.305 | 0.136 | 0.448 | 0.461 | 0.213 | 0.148 | 0.374 | 0.226 | 0.246 | 0.243 | 0.65 | 0.614 | 0.459 | 0.284 | 0.259
HARA | 0.857 | 0.976 | 0.688 | 1.04 | 0.983 | 0.79 | 0.505 | 0.373 | 0.425 | 0.0788 | 0.0662 | 0.44 | 0.407 | 0.444 | 0.243 | 0.691 | 0.203 | 0.118 | 0.151 | 0.902
HCC-15 | 0.939 | 0.93 | 0.785 | 0.784 | 0.833 | 0.936 | 0.7 | 0.686 | 0.494 | 0.136 | 0.138 | 0.472 | 0.491 | 0.63 | 0.382 | 0.377 | 0.381 | 0.178 | 0.149 | 0.852
